According to US20250275986A1, “COMBINATION OF A KETONE BODY OR KETOGENIC COMPOUND WITH AN ANALGESIC OR ANTIOXIDANT” (KETOSWISS AG, priority 2021, published 2025):

Tested on: headache during an acute migraine attack
Experiment: Intensity of the headache (visual analogue scale 0 to 10) during acute migraine attacks in one migraine patient after intake of the substance(s)
Assay type: in vivo, human
Method: During the course of the trial, the patient had 17 recorded acute migraine attacks which were treated by either one of the following nine treatment regimes: • 1. 13 g flavoured mix of β-hydroxbutyrate (βHB) mineral salts termed “MigraKet” (a ketone body) • 2. 500 mg acetylsalicylic acid (a simple analgesic) • 3. 400 mg ibuprofen (a simple analgesic) • 4. 13 g MigraKet+500 mg acetylsalicylic acid (combination of a ketone body and a simple analgesic) • 5. 13 g MigraKet+400 mg ibuprofen (combination of a ketone body and a simple analgesic) • 6. 2.5 mg frovatriptan (a triptan) • 7. 13 g MigraKet+2.5 mg frovatriptan (combination of a ketone body and a triptan) • 8. 9 mg melatonin • 9. 13 g MigraKet+9 mg melatonin (combination of a ketone body and an antioxidant such as melatonin) The “MigraKet” consisted of:
10g of a sodium, potassium, magnesium and calcium D-βHB mineral mix in a 1:1:2:2 ratio, and 3g of flavour (malic acid and natural lemon and lime flavour sweetend by stevia), dissolved in 0.51 of still water.
The intensity of the headache (pain) was recorded at the time of intake of the substance(s) (0h), and at five subsequent time-points during the course of one day (2h, 4 h, 8h, 12 h, 24h after substance intake). The intensity of the headache (pain) was categorized on a visual analogue scale from 0 (“no pain”) to 10 (“worst pain imaginable”). […]

SMILES	time for which the headache was eliminated (after intake, melatonin with βHB: in 1 out of 2 instances, b14: taken when intensity about 0 to about 4)	effect on the headache in words (over the course of 24 hours)
CN[C@@H]1CCc2[nH]c3ccc(C(N)=O)cc3c2C1 [Frovatriptan, frovatriptan]	less than 12 h	
COc1ccc2[nH]cc(CCNC(C)=O)c2c1 [Melatonin, N-[2-(5-Methoxyindol-3-yl)ethyl]acetamid]		did not ameliorate the headache
